Assay results published in patent EP1101492A1, “NOVEL REMEDIES FOR ALLERGIC DISEASES” (FUJI YAKUHIN KOGYO KABUSHIKI KAISHA, priority 1998, dated 2000).

Columns and labels:
[1] = Body weight gain in sensitized mice; type: in vivo; conditions: test compound 50 µg/ear/dose, prednisolone 5 µg/ear/dose, in ethanol painted twice a day, Days 1, 4 and 7, vs solvent control (ethanol)
Method: Experimental atopic dermatitis model mice sensitized in the same manner as in Example 1 were examined for influence on body weight gains.
Each mouse was measured for its body weight not only immediately before the start in painting but also on Days 1, 4 and 7 after the start in painting. Each gain in body weight was calculated and considered to indicate an effect on body weight changes affected by said treatments.

[2] = test system: mouse contact-type (type IV) dermatitis models; test: Type IV allergic dermatitis (oxazolone-induced auricle edema); type: in vivo, Balb/c mice; conditions: 50 mg/mL in ethanol
Method: Mice (male, Balb/c, 6 weeks old, 20 to 25 g) were sensitized by painting a 3% solution of oxazolone (100 µL) abdominally. Six days after sensitization, a 0.5% solution of oxazolone in acetone was painted on both sides of a right ear at a dose of 10 µL to raise auricle edema. An untreated group was painted with the solvent (acetone) alone onto both sides of a left ear of the same mouse at 10 µL. At 24 hours after edema-induction, each mouse was sacrificed with ether and an equivalent each of right and left auricles was stamped out with a puncher (diameter: 6 mm). Both left and right auricle sections were measure for their weight and each percent edema was calculated (Kazuo Ouchi (Ed.), "Seibutsu Yakukagaku Jikken Koza, Ensho To Allergy (Inflammation and Allergy) I-1", 1993, Hirokawa Publishing Co., Japan) Percent Edema (%) =((Right Auricular Segment Weight - Left Auricular Segment Weight))/(Left Auricular Segment Weight)× 100 [formula]
The solvent (ethanol) alone was painted on a left auricle at the same dose (treated group). Unsensitized mice were also treated for induction similarly and then treated with the compound of the present invention, only followed by examination for the potency of the compound of the present invention on auricles (unsensitized group). The number of animals used in the test was set 4 per group. […]

allergic peritonitis = test: Allergic peritonitis induced with ovalbumin (peritoneal exudate cells); type: in vivo, Balb/c mice; conditions: ovalbumin challenge
Method: Twenty four hours after induction, mice were sacrificed under ether […] and each penitoneal cavity was lavaged twice or thrice with a washout medium (total volume: 5 mL, physiological saline containing 10 units/mL of heparin). Peritoneal exudate cells (PEC) were harvested in a siliconized glass tube. The retrieved washout medium was measured for its yield (mL) and the number of exudate cells therein by using Turk solution and counting on a haemocytometer and a total number of PEC was calculated. An aliquot thereof (an extent of approximately 20,000 cells of PEC) was taken. Specimens for staining were prepared using Cytospin 3 (CHANDON), and PEC was stained with Dif-Quick solution (International Reagents Corporation). After staining, PEC was subjected to fractional counts under a microscope with classification into eosinophils, neutrophils, lymphocytes/macrophages and basophils based on their form and stain nature (more than 500 PEC per specimen were randomly counted). […] After counting, intraperitoneal exudation inhibition rates were calculated by the following formula and expressed as the therapeutic efficacies: Inhibition Rate (%) =[1 -((PEC in Sensitized/Drug-Treated Mouse) - (PEC in Unsensitized/Saline-Treated Mouse))/((PEC in Sensitized/Saline-Treated Mouse) - (PEC in Unsensitized/Saline-Treated Mouse))]× 100 [formula]
A physiological saline solution containing ovalbumin (0.25 mg/mL) and an aluminum hydroxide gel (4 mg/mL) was administered subcutaneously to male Balb/c mice (7 weeks old, 20 to 23 g, purchased from JAPAN SLC, Inc.) twice at one week interval at a single dose of 0.4 mL for sensitization. On Day 14 after the initial sensitization, an antigen solution for induction (2.5 µg/mL) was administered intraperitoneally to each animal at a dose of 0.4 mL to raise allergic peritonitis. Compound No. 130 (30 mg/kg) or a negative control solvent, physiological saline (10 mL/kg), was administered intraperitoneally to each animal 5 minutes prior to induction, 3 and 6 hours post-induction.
Similarly to Example 24, the peritoneal cavities were lavaged to retrieve PEC. The drained liquids were measured for their yield and total PEC number therein. In the same manner as in Example 24, PEC was stained and subjected to fractional counting under a microscope based on their form. […] Similarly to Example 24, basophils and neutrophils were excluded from subjects to be examined. In the same manner as in Example 24, intraperitoneal exudation inhibition rates were calculated and expressed as the therapeutic efficacies.
In the same manner as in Example 25, male Balb/c mice were sensitized with ovalbumin and an aluminum hydroxide gel, and, on Day 14 after the initial sensitization, treated with an antigen solution to raise allergic peritonitis. Compound No. […]
Similarly to Example 24, the peritoneal cavities were lavaged to retrieve PEC 24 hours after induction. The drained liquids were measured for their yield and total PEC number therein.

[3] = test system: guinea pig experimental bronchial asthma models; test: Experimental bronchial asthma model (ovalbumin inhalation): airway resistance and asthmatic death;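 note: female Std:Hartley guinea pigs sensitized by inhaling nebulized ovalbumin once daily for 8 consecutive days, 8 to 11 animals per group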
[4] = 30 mg/kg i.p. 5 minutes prior to induction, 3 and 6 hours post-induction
[5] = 30 mg/kg s.c. 6 hours and 5 minutes prior to induction, 24 hours after induction
[6] = asthmatic death due to cyanosis within several minutes after elicitation, Compound No. 130 15 mg/kg s.c., prednisolone 10 mg/kg orally, 24 and 2 hours prior to elicitation

In the case of CNC(=O)[C@H](Cc1ccc(NC(=N)N)cc1)NC(=O)[C@H](CC(C)C)C(CCCc1ccccc1)C(=O)NO (single isomer, unassigned) [Compound No. 130, N-[4-(N-Hydroxyamino)-2(R)-isobutyl-3(R or S)-(3-phenyltrimethylene)succinyl)-L-4'-guanidophenylalanine-N-methylamide 1 acetate], the “gain in body weight (FIG. 10)” value [1] is reported as “almost equivalent to that in the solvent control group”, the “development of auricle edemas (FIG. 13)” value ([2]; 10 µL per side painted on right auricle 0.5 hr prior to and 6 hours after edema-induction, 24 hours after induction) is reported as “amelioration of auricle edemas” and the “effect of the compound alone on auricles (FIG. 13)” value ([2]; unsensitized mice, 10 µL per side painted twice) is reported as “almost free of swelling and/or thinning”. The “inhibition of infiltration of eosinophils into the peritoneal cavity” value (allergic peritonitis; [4]) was 56.3%, the “inhibition of infiltration of lymphocytes/macrophages into the peritoneal cavity” value (allergic peritonitis; [4]) was 74.9% and the “reduction of total PEC numbers” value (allergic peritonitis; [4]) was 70.7%. The “inhibition of infiltration of eosinophils into the peritoneal cavity” value (allergic peritonitis; [5]) was 38.6%, the “inhibition of infiltration of lymphocytes/macrophages into the peritoneal cavity” value (allergic peritonitis; [5]) was 91.2% and the “reduction of total PEC numbers” value (allergic peritonitis; [5]) was 68.5%. For the same compound, the “airway resistance (FIG. 12)” value ([3]; 15 mg/kg s.c. 24 hours and 2 hours prior to elicitation, IAR 1 hour, LAR 6 hours post-elicitation) was “significant reduction of the increased airway resistance”, the “% Mortality” value [3, 6] was 0.0% and the “(Dead Animals)/(Tested Animals)” value [3, 6] was 0/10.
